Structures can show the parent of a compound that is named as a salt.
Tests used:
[1] = target: T1, human TLR2 (Pam2CSK4, TLR2/6 agonist) in HEK-Blue hTLR2 cells (Homo sapiens, UniProt O60603); assay: HEK-Blue hTLR2 antagonism assay (SEAP reporter) with Pam2CSK4 as agonist; type: cell-based; settings: 2 h compound pre-incubation, approx. 3×EC50 Pam2CSK4, 18 h, SEAP OD 655 nm, background subtracted
T1 construct: host or cells: HEK-Blue hTLR2 (HEK-293)
Description: (§1) Synthetic diacylated lipoprotein (Pam2CSK4, TLR2/6 agonist) and synthetic triacylated lipoprotein (Pam3CSK4, TLR1/2 agonist) were obtained from InvivoGen and were dissolved in endotoxin-free water to a concentration 1 mg/mL, vortexed until complete solubilization, and stored in aliquots at −20° C. Prior to addition to cells, an aliquot of the dissolved ligand was vortexed shortly and then was diluted in medium to 25 ng/mL Pam2CSK4 or 1000 ng/mL Pam3CSK4. The EC50 of the agonists for each assay run was determined by using 3-fold dilutions of each agonist from the following starting concentrations: 5 ng/mL for Pam2CSK4, and 200 ng/mL for Pam3CSK4.
(§2) Test compounds were solubilized fresh to 10-20 mM stocks in DMSO and sonicated for 5-10 minutes in a water bath sonicator. Serial dilutions were prepared in DMSO, and then diluted in medium. The final concentration of DMSO used in the assay was 1%.
(§3) HEK-Blue hTLR2 reporter cells (InvivoGen) are HEK-293 cells stably expressing both the human TLR2 gene and a secreted embryonic alkaline phosphatase (SEAP) reporter construct downstream of NFκB promotor sites. HEK-Blue hTLR2 reporters were cultured according to manufacturer's protocol using Dulbecco's Modified Eagle Medium (DMEM; Gibco) containing 1× GlutaMax (Gibco), 10% heat-inactivated Fetal Bovine Serum (Gibco), Pen-Strep (50 U/mL penicillin, 50 μg/mL streptomycin, Gibco), 100 μg/mL Normocin (InvivoGen), and the selective antibiotic, 1× HEK-Blue Selection (InvivoGen). Quanti-Blue reagent (InvivoGen) for detection and quantification of secreted alkaline phosphatase was dissolved in 100 mL of endotoxin-free water, warmed to 37° C. for 30 minutes and then filtered using a 0.2 μm membrane.
(§4) On day 1, 50 μL of each test compound dilution in duplicates or a vehicle control was added to each well of a 96-well plate followed by addition of 150 μL of HEK-Blue hTLR2 cell suspension (1×10^5 cells/well) and incubated at 37° C./5% CO2 for 2 h. Next, 50 μL of an approximate 3×EC50 concentration of each agonist (Pam2CSK4 or Pam3CSK4) was added to the wells containing test compounds or the vehicle control. The plates were then incubated at 37° C./5% CO2 for 18 h. For each assay run, non-treated HEK-Blue hTLR2 cells were treated with serial dilutions of agonists to determine EC50 values for the respective run.
(§5) On day 2, secreted alkaline phosphatase (SEAP) activity was detected in cell culture supernatants. In brief, 20 μL was collected from each well and transferred to a 96-well plate. Next, 200 μL of Quanti-Blue detection reagent was added to each well. Plates were incubated at room temperature for 15 min and SEAP activity was assessed by spectrophotometer OD reading at 655 nm. […] The activities of the compounds against Pam2CSK4 and Pam3CSK4 are presented as IC50 values for the response from cells treated with agonists with the background signal subtracted.

[2] = target: T2, human TLR2 (Pam3CSK4, TLR1/2 agonist) in HEK-Blue hTLR2 cells (Homo sapiens, UniProt O60603); assay: HEK-Blue hTLR2 antagonism assay (SEAP reporter) with Pam3CSK4 as agonist; type: cell-based; settings: 2 h compound pre-incubation, approx. 3×EC50 Pam3CSK4, 18 h, SEAP OD 655 nm, background subtracted
T2 construct: host or cells: HEK-Blue hTLR2 (HEK-293)
Description: as §1, §2, §3, §4, §5

T1 sequence (O60603 19-784 limits assumed): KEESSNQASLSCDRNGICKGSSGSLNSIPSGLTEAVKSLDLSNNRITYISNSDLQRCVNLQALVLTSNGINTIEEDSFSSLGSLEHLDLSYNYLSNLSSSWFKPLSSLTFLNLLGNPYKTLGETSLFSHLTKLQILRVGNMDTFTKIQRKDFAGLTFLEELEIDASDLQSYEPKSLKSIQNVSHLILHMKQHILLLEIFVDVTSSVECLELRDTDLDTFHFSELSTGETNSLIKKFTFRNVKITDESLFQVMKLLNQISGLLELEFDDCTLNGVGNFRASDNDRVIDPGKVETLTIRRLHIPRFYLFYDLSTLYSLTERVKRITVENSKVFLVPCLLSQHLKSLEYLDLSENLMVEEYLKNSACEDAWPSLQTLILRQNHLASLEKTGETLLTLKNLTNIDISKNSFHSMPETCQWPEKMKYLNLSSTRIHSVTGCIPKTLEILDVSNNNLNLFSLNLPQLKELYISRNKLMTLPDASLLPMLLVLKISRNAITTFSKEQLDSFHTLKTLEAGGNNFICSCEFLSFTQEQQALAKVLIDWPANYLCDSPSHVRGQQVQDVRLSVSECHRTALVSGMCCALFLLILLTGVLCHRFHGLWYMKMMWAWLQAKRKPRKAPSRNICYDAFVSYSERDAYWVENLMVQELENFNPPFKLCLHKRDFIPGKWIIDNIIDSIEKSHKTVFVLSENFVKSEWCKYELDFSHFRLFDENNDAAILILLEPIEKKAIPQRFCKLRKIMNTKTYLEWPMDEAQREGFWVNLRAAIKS
T2 sequence (O60603 19-784 limits assumed): as above

Row | IC50 [1] | IC50 [2] | Structure (SMILES)
1 | 0.5 µM | 0.6 µM | O=Cc1cc(/C=C/c2ccc(N3CCCC3)cc2)cc(F)c1O [Example 49a, (E)-3-fluoro-2-hydroxy-5-(4-(pyrrolidin-1-yl)styryl)benzaldehyde]
2 | 0.8 µM | 0.8 µM | O=Cc1cc(/C=C/c2ccc(N3CCCC3)cc2)cc(F)c1O [Example 49b, (E)-3-fluoro-2-hydroxy-5-(4-(pyrrolidin-1-yl)styryl)benzaldehyde]
3 | 3.2 µM | 1.7 µM | COc1ccc(/C=C/c2cc(C=O)c(O)c(OC)c2)cc1 [compound 1, (E)-2-hydroxy-3-methoxy-5-(4-methoxystyryl)benzaldehyde]
4 | 5.3 µM | 1.4 µM | COc1cc(/C=C/c2cccc(C(F)(F)F)c2)cc(C=O)c1O [compound 2, (E)-2-hydroxy-3-methoxy-5-(3-(trifluoromethyl)styryl)benzaldehyde]
5 | 4.8 µM | 3.1 µM | COc1cc(C=Cc2ccc(Cl)cc2)cc(C=O)c1O [compound 3, 5-(4-chlorostyryl)-2-hydroxy-3-methoxybenzaldehyde]
6 | 5.5 µM | 4 µM | COc1cc(/C=C/c2ccccc2)cc(C=O)c1O [compound 4, (E)-2-hydroxy-3-methoxy-5-styrylbenzaldehyde]
7 | 4 µM | 3.2 µM | COc1cc(/C=C/c2cc(F)cc(F)c2)cc(C=O)c1O [compound 5, (E)-5-(3,5-difluorostyryl)-2-hydroxy-3-methoxybenzaldehyde]
8 | 2.5 µM | 2.3 µM | COc1cc(/C=C/c2ccc(F)cc2F)cc(C=O)c1O [compound 6, (E)-5-(2,4-difluorostyryl)-2-hydroxy-3-methoxybenzaldehyde]
9 | 7.9 µM | 6.2 µM | COc1cc(/C=C/c2ccc(F)cc2)cc(C=O)c1O [compound 7, (E)-5-(4-fluorostyryl)-2-hydroxy-3-methoxybenzaldehyde]
10 | 6.3 µM | 5.5 µM | COc1cc(/C=C/c2ccc(C(F)(F)F)cc2)cc(C=O)c1O [compound 8, (E)-2-hydroxy-3-methoxy-5-(4-(trifluoromethyl)styryl)benzaldehyde]
11 | > 100 µM | > 100 µM | COc1ccc(/C=C/c2cc(OC)c(O)c(C(C)=O)c2)cc1 [compound 9, (E)-1-(2-hydroxy-3-methoxy-5-(4-methoxystyryl)phenyl)ethan-1-one]
12 | 4.6 µM | 3.8 µM | COc1ccc(/C=C/c2cc(F)c(O)c(C=O)c2)cc1 [compound 10, (E)-3-fluoro-2-hydroxy-5-(4-methoxystyryl)benzaldehyde]
13 | 1.1 µM | 1 µM | O=Cc1cc(/C=C/c2cccc(C(F)(F)F)c2)cc(F)c1O [compound 11, (E)-3-fluoro-2-hydroxy-5-(3-(trifluoromethyl)styryl)benzaldehyde]
14 | 1.4 µM | 1.3 µM | COc1cc(-c2cc3c(s2)CCN(C(=O)OC(C)(C)C)C3)cc(C=O)c1O [compound 12, tert-butyl 2-(3-formyl-4-hydroxy-5-methoxyphenyl)-6,7-dihydrothieno[3,2-c]pyridine-5(4H)-carboxylate]
15 | 4.5 µM | 3.8 µM | COc1cc(-c2cc3c(s2)CCNC3)cc(C=O)c1O [compound 13, 2-hydroxy-3-methoxy-5-(4,5,6,7-tetrahydrothieno[3,2-c]pyridin-2-yl)benzaldehyde hydrochloride]
16 | 5.7 µM | 4.2 µM | COc1cc(-c2cc3c(s2)CCN(C(=O)C2CC2)C3)cc(C=O)c1O [compound 14, 5-(5-(cyclopropanecarbonyl)-4,5,6,7-tetrahydrothieno[3,2-c]pyridin-2-yl)-2-hydroxy-3-methoxybenzaldehyde]
17 | 14.7 µM | 12.6 µM | COc1cc(-c2cc3c(s2)CCN(C(C)=O)C3)cc(C=O)c1O [compound 15, 5-(5-acetyl-4,5,6,7-tetrahydrothieno[3,2-c]pyridin-2-yl)-2-hydroxy-3-methoxybenzaldehyde]

Row | IC50 [1] | IC50 [2] | Structure (SMILES)
18 | 5.9 µM | 6.9 µM | COc1cc(-c2cc3c(s2)CCN(CCF)C3)cc(C=O)c1O [compound 16, 5-(5-(2-fluoroethyl)-4,5,6,7-tetrahydrothieno[3,2-c]pyridin-2-yl)-2-hydroxy-3-methoxybenzaldehyde]
19 | 2 µM | 2.1 µM | COc1cc(-c2cc3c(s2)CCN(CC2CC2)C3)cc(C=O)c1O [compound 17, 5-(5-(cyclopropylmethyl)-4,5,6,7-tetrahydrothieno[3,2-c]pyridin-2-yl)-2-hydroxy-3-methoxybenzaldehyde]
20 | 10.4 µM | 12.2 µM | CN1CCc2sc(-c3cc(F)c(O)c(C=O)c3)cc2C1 [compound 18, 3-fluoro-2-hydroxy-5-(5-methyl-4,5,6,7-tetrahydrothieno[3,2-c]pyridin-2-yl)benzaldehyde]
21 | 26.7 µM | 38.1 µM | CC(=O)N1CCc2sc(-c3cc(F)c(O)c(C=O)c3)cc2C1 [compound 19, 5-(5-acetyl-4,5,6,7-tetrahydrothieno[3,2-c]pyridin-2-yl)-3-fluoro-2-hydroxybenzaldehyde]
22 | 11.2 µM | 10 µM | COc1cc(-c2cc3c(s2)CCN(C(C)C)C3)cc(C=O)c1O [compound 20, 2-hydroxy-5-(5-isopropyl-4,5,6,7-tetrahydrothieno[3,2-c]pyridin-2-yl)-3-methoxybenzaldehyde]
23 | 40 µM | 57.3 µM | Cc1ccc(/C=C/c2ccc(O)c(C=O)c2)cn1 [compound 21, (E)-2-hydroxy-5-(2-(6-methylpyridin-3-yl)vinyl)benzaldehyde]
24 | 17.8 µM | 6.3 µM | COc1ccc(/C=C/c2cc(C=O)c(O)cc2F)cc1 [compound 22, (E)-4-fluoro-2-hydroxy-5-(4-methoxystyryl)benzaldehyde]
25 | 11.8 µM | 11.5 µM | COc1cc(/C=C/c2ccccn2)cc(C=O)c1O [compound 23, (E)-2-hydroxy-3-methoxy-5-(2-(pyridin-2-yl)vinyl)benzaldehyde]
26 | > 100 µM | > 100 µM | O=Cc1cc(/C=C/c2ccccn2)ccc1O [compound 24, (E)-2-hydroxy-5-(2-(pyridin-2-yl)vinyl)benzaldehyde]
27 | 15.2 µM | 16.4 µM | COc1cc(/C=C/c2ccncc2)cc(C=O)c1O [compound 25, (E)-2-hydroxy-3-methoxy-5-(2-(pyridin-4-yl)vinyl)benzaldehyde]
28 | 7.4 µM | 9.3 µM | COc1cc(/C=C/c2ccc(C)nc2)cc(C=O)c1O [compound 26, (E)-2-hydroxy-3-methoxy-5-(2-(6-methylpyridin-3-yl)vinyl)benzaldehyde]
29 | 4.4 µM | 7.7 µM | COc1cc(/C=C/C2CCN(C(=O)OC(C)(C)C)CC2)cc(C=O)c1O [compound 27, tert-butyl (E)-4-(3-formyl-4-hydroxy-5-methoxystyryl)piperidine-1-carboxylate]
30 | 19.5 µM | 29.4 µM | O=Cc1cc(/C=C/c2ccccn2)cc(F)c1O [compound 28, (E)-3-fluoro-2-hydroxy-5-(2-(pyridin-2-yl)vinyl)benzaldehyde]
31 | 9.1 µM | 10 µM | Cc1ccc(/C=C/c2cc(F)c(O)c(C=O)c2)cn1 [compound 29, (E)-3-fluoro-2-hydroxy-5-(2-(6-methylpyridin-3-yl)vinyl)benzaldehyde]
32 | 20.6 µM | 18.8 µM | O=Cc1cc(/C=C/c2ccncc2)cc(F)c1O [compound 30, (E)-3-fluoro-2-hydroxy-5-(2-(pyridin-4-yl)vinyl)benzaldehyde]
33 | 3.8 µM | 6 µM | CC(C)(C)OC(=O)N1CCC(/C=C/c2cc(F)c(O)c(C=O)c2)CC1 [compound 31, tert-butyl (E)-4-(3-fluoro-5-formyl-4-hydroxystyryl)piperidine-1-carboxylate]

Source: US11345713B2, “Compounds as modulators of TLR2 signaling” (Neuropore Therapies, inc., priority 2018, dated 2022)
